Laboratory results taken from BindingDB's records for doi:10.1074/jbc.M110.206193 (Takeda Pharmaceutical, 2011).

What was measured:
[1] = target: Epidermal growth factor receptor (Homo sapiens, UniProt P00533); test: Enzyme Assay; details: pH 7.5
Procedure: (§1) The EGFR, HER2 and HER4 kinase assay were performed using radiolabeled [gamma-32P] ATP from GE Healthcare.

[2] = target: Receptor tyrosine-protein kinase erbB-4 (Homo sapiens, UniProt Q15303); test: Enzyme Assay; details: pH 7.5
Procedure: as §1

Sequence of Epidermal growth factor receptor (P00533 whole entry): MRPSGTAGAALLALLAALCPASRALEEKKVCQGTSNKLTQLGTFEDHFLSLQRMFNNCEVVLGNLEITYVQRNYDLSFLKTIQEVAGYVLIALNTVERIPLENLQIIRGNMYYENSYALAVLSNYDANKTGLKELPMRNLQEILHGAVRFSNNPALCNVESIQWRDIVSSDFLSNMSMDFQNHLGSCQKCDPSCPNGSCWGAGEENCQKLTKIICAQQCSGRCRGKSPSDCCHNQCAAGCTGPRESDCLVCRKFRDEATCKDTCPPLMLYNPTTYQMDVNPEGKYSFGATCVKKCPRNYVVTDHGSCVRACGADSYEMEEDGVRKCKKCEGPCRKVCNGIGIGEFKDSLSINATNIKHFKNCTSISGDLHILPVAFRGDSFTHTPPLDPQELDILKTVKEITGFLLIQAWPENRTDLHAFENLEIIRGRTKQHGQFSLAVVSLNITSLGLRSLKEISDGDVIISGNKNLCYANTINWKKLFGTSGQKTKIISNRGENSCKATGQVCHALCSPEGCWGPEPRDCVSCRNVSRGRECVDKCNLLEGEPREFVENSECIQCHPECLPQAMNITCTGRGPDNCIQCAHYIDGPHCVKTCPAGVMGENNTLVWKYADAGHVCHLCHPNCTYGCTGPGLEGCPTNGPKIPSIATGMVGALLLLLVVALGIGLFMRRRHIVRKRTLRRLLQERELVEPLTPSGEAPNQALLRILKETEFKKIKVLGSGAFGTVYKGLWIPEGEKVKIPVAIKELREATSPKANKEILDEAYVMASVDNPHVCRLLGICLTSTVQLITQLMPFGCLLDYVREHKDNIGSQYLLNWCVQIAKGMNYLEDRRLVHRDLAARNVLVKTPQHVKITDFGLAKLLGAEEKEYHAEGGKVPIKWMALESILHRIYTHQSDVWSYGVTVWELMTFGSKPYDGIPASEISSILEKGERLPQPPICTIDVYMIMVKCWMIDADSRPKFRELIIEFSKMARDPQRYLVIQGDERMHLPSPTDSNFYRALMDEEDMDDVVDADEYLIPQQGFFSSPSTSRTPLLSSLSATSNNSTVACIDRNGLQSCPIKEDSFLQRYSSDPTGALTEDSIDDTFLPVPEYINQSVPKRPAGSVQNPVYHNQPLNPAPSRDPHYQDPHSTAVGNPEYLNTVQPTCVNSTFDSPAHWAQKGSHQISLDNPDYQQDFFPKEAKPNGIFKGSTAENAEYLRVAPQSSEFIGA
Sequence of Receptor tyrosine-protein kinase erbB-4 (Q15303 whole entry): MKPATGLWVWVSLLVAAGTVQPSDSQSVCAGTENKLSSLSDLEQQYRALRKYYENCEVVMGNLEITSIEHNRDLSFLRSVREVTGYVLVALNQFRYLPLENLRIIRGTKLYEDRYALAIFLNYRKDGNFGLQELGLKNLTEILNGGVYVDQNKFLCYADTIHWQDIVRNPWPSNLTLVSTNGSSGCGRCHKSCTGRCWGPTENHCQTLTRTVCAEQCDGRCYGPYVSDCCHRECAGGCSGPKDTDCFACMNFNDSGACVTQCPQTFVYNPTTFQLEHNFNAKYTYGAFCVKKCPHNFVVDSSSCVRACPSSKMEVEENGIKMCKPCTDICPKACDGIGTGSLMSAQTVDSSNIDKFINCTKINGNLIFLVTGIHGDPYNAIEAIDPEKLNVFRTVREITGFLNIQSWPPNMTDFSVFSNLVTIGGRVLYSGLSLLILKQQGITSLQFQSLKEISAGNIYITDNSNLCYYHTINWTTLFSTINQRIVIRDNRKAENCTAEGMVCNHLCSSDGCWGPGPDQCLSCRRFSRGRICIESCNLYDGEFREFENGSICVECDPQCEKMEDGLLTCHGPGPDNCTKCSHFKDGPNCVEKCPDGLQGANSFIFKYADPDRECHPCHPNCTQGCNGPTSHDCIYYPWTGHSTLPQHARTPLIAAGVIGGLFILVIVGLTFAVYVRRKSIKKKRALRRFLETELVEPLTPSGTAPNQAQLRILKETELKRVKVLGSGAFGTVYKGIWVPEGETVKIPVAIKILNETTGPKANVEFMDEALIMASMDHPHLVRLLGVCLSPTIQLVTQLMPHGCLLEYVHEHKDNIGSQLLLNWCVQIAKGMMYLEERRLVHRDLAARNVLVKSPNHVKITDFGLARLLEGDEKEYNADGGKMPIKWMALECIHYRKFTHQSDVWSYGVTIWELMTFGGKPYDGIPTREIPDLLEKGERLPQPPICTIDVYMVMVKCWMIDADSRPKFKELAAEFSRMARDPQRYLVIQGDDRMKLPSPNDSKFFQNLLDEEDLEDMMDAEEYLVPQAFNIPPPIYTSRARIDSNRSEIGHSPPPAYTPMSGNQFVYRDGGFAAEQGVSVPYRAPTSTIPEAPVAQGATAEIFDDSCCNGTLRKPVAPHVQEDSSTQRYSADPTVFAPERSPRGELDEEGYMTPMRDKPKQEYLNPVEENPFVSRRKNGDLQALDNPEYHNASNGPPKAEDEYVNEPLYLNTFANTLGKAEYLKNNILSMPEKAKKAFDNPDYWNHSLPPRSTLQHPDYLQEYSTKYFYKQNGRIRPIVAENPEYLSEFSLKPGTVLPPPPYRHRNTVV

SMILES: OCCOCn1ccc2ncnc(Nc3cnc(Oc4cccc(C(F)(F)F)c4)c(Cl)c3)c21 [SYR127063]
- IC50 [1]: 429 nM
- IC50 [2]: > 10000 nM
